{"source": "patent US20220031632A1", "about": "“NANOPARTICLE COMPOSITIONS AND USES THEREOF” (OP-T LLC, priority 2020, published 2022)", "key": {"[1]": {"test_system": "T1D dogs", "experiment": "Longstanding T1D domestic dogs treated with i.v. infusions of dog 15-mer peptide", "format": "in vivo", "details": "before first infusion vs several weeks after initiation", "experimental": "Four longstanding T1D domestic dogs were treated with i.v. infusions of dog 15-mer peptide, twice in the first week then weekly thereafter. Levels of fructosamine were measured before the first infusion and several weeks after initiation of treatment."}, "[2]": {"test_system": "C57BL/6 mice", "experiment": "EAE mouse model, daily clinical score", "format": "in vivo", "from_the_text": "EAE was then induced and the mice started to show symptoms on day 10, which is standard for these mice under these conditions. This is further depicted in FIG. 11. On days 13, 20, and 27, the KGYY6 group of mice receive a boost of peptide, while the other group again received PBS via IV injection. […] By day 13, there was a statistically significant difference that lasted throughout the experiment. In FIG. 11—*—asterisks—denote p-value: *—one asterisk is <0.05; **—two asterisks is <0.01; ***—three asterisks is <0.001; and ****-four asterisks is <0.0001. This is a two-way ANOVA with Sidak's multiple comparisons test. Arrows in above lines in FIG. 11 represent days −3, −1, 13, 20, and 27, which correspond to days on which the mice received the KGYY6. Mice were disease scored daily in this study as described in more detail below. […]\nAll mice were monitored daily for disease and scored in the following manner: 0—no abnormalities; 0.5—clutching hind limbs; 1—limp tail or weak hind limbs and/or wobbly gait; 1.5—limp tail and clutching hind limbs; 2—limp tail and weak hind limbs and/or wobbly gait wherein the mouse supports itself and propels itself using hind limbs; 2.5—limp tail and weak hind limbs and/or wobbly gait wherein the mouse cannot support and propel itself using hind limbs, but the paws are moving. […]"}, "[3]": {"test_system": "ApoE−/− mice", "experiment": "Glucose tolerance testing in ApoE-/- mice", "format": "in vivo, mouse", "details": "n=14"}, "[4]": {"test_system": "CD3+ T cells and antigen presenting cells (APC)", "experiment": "Fluorescent peptide binding to PBMCs from MS patients by flow cytometry", "format": "cell-based, human", "details": "fluorescenated peptides", "experimental": "In some embodiments, the size (length—i.e. number of amino acids) of the peptide may matter for disease prevention capacity. […] In some embodiments, use of different length peptides may be advantageous in treatment of different diseases as each disease may be driven primarily by one cell type or another.\nPeripheral blood mononuclear cells from MS patients were stained then gated on CD3^+ for T cells or on CD3^− for antigen presenting cells (APC) were analyzed for peptide binding levels. Different cells bind different peptides with different intensities as determined by flow cytometry. There were 24 subjects in each test."}, "[5]": {"test_system": "NOD mice", "experiment": "Diabetes prevention in NOD mice treated with peptides", "format": "in vivo, mouse", "details": "for diabetes onset (blood glucose >250 mg/dl): NOD mice treated with different sizes of peptides, n=10", "experimental": "(a) The amino acid sequence of mouse CD154 is depicted, with amino acids known to interact with CD40 shown in bold. A 15 amino acid sequence is highlighted in grey and aligned with the same motif in human CD154. A previously studied peptide is highlighted. (b) NOD mice were treated with different sizes of peptides, as indicated (n=10 in all groups). Mice were monitored for diabetes onset (blood glucose >250 mg/dl). Differences were significant by two-way ANOVA; p<0.0001.\nFIG. 3 includes sub-parts FIGS. 3A and 3B. […] The percent of subjects that developed diabetes in the KGYY15 subjects was much lower, as compared with the RGD peptide and the scrambled peptide. KGYY15 diabetes prevention is sequence dependent, and several amino acid positions are critical for its function. (a) KGYY15-treated mice were compared with mice treated with a scrambled peptide or a peptide targeting the RGD region (sequences indicated above the graph). (b) KGYY15-treated mice were compared with mice treated with a 15-mer peptide series in which single amino acids, as indicated, were substituted for glycine. L137; Y144; T146; M147; N150; n=10 in all groups shown in (a) and (b), except for L137, where n=9. Differences were significant by two-way ANOVA; p<0.0001"}, "[6]": {"test_system": "NOD mice", "experiment": "Reversal of overt hyperglycemia in new onset diabetic NOD mice, daily KGYY15", "format": "in vivo, mouse", "experimental": "FIG. 2, which includes FIG. 2A-2D, is based on a study of the use of KGYY15 to treat NOD mice. […] Immediately after diabetes onset (blood glucose >250 mg/dl; n=9), mice were treated daily with KGYY15 and blood glucose was monitored. […] FIG. 2C is a graph showing Islet insulitis scores in reversed and non-reversed mice: 0, no infiltration (black); 1, 25% infiltration (striped); 2, 50% infiltration (dark grey); 3, 75% infiltration (light grey); 4, 100% infiltration (white). FIG. 2D is a graph showing Islet insulin granulation scores: 0, less than 25% granulation; 1, 25-50% granulation; 2, 50-75% granulation; […], 75-100% granulated. Data is represented as the mean±SEM; ****p<0.0001 by two-tailed unpaired t test."}, "[7]": {"test_system": "NOD mice", "experiment": "Immunogenicity: serum antibodies to KGYY15 or sCD154 by western blot", "format": "in vivo, mouse", "details": "1 mg/kg weekly for 7 weeks", "experimental": "(§1) NOD mice were injected weekly for 7 weeks with 1 mg/kg of KGYY15. In FIG. 4A, serum was collected from injected or control mice and used, followed by anti-mouse-IgG secondary antibody, in western blots for detection of KGYY15 peptide or soluble CD154 (sCD154; KGYY15 and sCD154 sizes are indicated with arrows). […] As a standard, KGYY15-biotin was run and detected with streptavidin-HRP. Experiment was done twice, pooling serum from 2 and 3 mice in each experiment, respectively. In FIGS. 4B and 4C, sorted splenic APC from KGYY15 treated mice were loaded with KGYY15 or not. T cells from KGYY15 treated mice were CFSE labelled then exposed to the autologous APC (+/− KGYY15) and incubated for 5 days. […] Representative histogram of CFSE dilution: Black line—T cells alone; Grey tinted—T cells+APC alone; Dotted line—T cells+APC loaded with KGYY15. Graph depicts cumulative data (n=5 in each group)."}, "[8]": {"test_system": "T cells from KGYY15 treated mice", "experiment": "T cell proliferation (CFSE dilution) with autologous APC loaded with KGYY15", "format": "cell-based, mouse", "details": "APC +/- KGYY15, 5 days, n=5", "experimental": "as §1"}}, "note": "“Also recorded” adds a separate entry of the source. Where no end group is shown, it is not given here."}
{"substance": "VLRWA PKGYY TISSN (chain 1 VLRWAPKGYYTISSN; chain 2 VLRWAPKGYYTISSN) [Dog 15-mer peptide]", "values": [{"measurement": "fructosamine levels", "setting": "[1]", "value": "significantly decreases fructosamine levels"}]}
{"substance": "AKKGYY [KGYY6]", "values": [{"measurement": "severity of EAE (disease course, clinical score)", "setting": "[2]; i.v. pretreatment before EAE induction plus boosts, vs PBS control", "value": "significantly less severe; also recorded: ameliorates EAE; also recorded: significantly reduced the severity of the EAE symptoms"}, {"measurement": "severity of EAE", "setting": "[2]; no pretreatment, treatment delayed until visible disease symptoms", "value": "may significantly reduce the severity of EAE"}, {"measurement": "glucose tolerance", "setting": "[3]", "value": "statistically significant improvement"}, {"measurement": "insulin sensitivity", "setting": "[3]", "value": "statistically significant improvement; also recorded: may improve"}]}
{"substance": "6-mer: fluorescenated version of the 6-mer peptide used to stain PBMCs from MS patients (AKKGYY; also: fluorescent label)", "values": [{"measurement": "binding to T cells compared with APCs", "setting": "[4]", "value": "stained both T cells and APCs equally well"}]}
{"substance": "15-mer: fluorescenated version of the 15-mer peptide used to stain PBMCs from MS patients (VLRWAPKGYYTISSN; also: fluorescent label)", "values": [{"measurement": "binding to T cells compared with APCs", "setting": "[4]", "value": "bound better to T cells than APCs"}]}
{"substance": "VLQWAKKGYYTMKSN (VLQWAKKGYYTMKSK) [KGYY15]", "values": [{"measurement": "diabetes onset (blood glucose >250 mg/dl)", "setting": "[5]", "value": "prevent the onset of T1D"}, {"measurement": "diabetes onset (blood glucose >250 mg/dl)", "setting": "[5]; listed as 15-mer CD154-derived peptide", "value": "prevents diabetes"}, {"measurement": "percent of subjects that developed diabetes", "setting": "[5]; NOD mice, 35 weeks, compared with RGD peptide and scrambled peptide", "value": "much lower"}, {"measurement": "reversal of overt hyperglycemia", "setting": "[6]; NOD mice treated daily after diabetes onset, n=9", "value": "reverses overt hyperglycemia"}, {"measurement": "mice with reversed hyperglycemia", "setting": "[6]; new onset diabetic mice", "value": "approximately 60%"}, {"measurement": "antibody production to the peptide", "setting": "[7]; serum western blot", "value": "no antibodies to the peptide had been generated; also recorded: does not elicit antibody production"}, {"measurement": "immunogenicity", "setting": "[7]; NOD mice, 1 mg/kg", "value": "does not appear to be immunogenic"}, {"measurement": "T cell proliferation by CFSE dilution", "setting": "[8]", "value": "no proliferation was detected"}]}
